Experimental findings from ChEMBL document CHEMBL1201862, “PubChem BioAssay data set” (2004) are described below.

Calls of active or inactive are those of the source.

The IC50 is the point on the concentration scale where inhibition reaches its midpoint. By AC50 is commonly meant the concentration giving half of the maximal activity seen. Broadly, the CC50 is the concentration giving 50% cytotoxicity. One may read the EC50 as the concentration at which the effect is half-maximal.

For one assay, the target named is T1, Hexokinase (Trypanosoma brucei, UniProt Q38C41).
T1 sequence (Q38C41 whole entry): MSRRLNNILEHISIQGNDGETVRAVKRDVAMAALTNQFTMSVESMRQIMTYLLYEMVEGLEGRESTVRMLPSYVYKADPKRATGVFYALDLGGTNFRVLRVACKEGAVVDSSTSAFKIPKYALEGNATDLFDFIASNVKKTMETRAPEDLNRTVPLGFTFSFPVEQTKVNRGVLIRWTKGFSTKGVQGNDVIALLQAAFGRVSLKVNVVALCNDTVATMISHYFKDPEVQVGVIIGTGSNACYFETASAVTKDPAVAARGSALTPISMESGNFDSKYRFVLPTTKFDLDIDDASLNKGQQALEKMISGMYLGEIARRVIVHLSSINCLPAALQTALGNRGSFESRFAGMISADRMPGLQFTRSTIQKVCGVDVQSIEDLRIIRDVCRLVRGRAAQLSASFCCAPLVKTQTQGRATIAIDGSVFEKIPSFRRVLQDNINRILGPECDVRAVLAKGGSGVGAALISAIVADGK
The assay is described as follows: Confirmation assay for inhibitors of Trypanosoma brucei hexokinase 1-Analogue-first series. [Related pubchem assays (depositor defined):AID1430, AID1632, AID2516, AID2560, AID2579, AID2600, AID449725, AID492951]. Format: functional.

Another assay concerns the target T2, Coagulation factor XII (Homo sapiens, UniProt P00748).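 Note: activated factor XIIa alpha cleaving a fluorogenic AMC peptide substrate; inhibitor potency from loss of enzyme activity.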
T2 sequence (P00748 whole entry): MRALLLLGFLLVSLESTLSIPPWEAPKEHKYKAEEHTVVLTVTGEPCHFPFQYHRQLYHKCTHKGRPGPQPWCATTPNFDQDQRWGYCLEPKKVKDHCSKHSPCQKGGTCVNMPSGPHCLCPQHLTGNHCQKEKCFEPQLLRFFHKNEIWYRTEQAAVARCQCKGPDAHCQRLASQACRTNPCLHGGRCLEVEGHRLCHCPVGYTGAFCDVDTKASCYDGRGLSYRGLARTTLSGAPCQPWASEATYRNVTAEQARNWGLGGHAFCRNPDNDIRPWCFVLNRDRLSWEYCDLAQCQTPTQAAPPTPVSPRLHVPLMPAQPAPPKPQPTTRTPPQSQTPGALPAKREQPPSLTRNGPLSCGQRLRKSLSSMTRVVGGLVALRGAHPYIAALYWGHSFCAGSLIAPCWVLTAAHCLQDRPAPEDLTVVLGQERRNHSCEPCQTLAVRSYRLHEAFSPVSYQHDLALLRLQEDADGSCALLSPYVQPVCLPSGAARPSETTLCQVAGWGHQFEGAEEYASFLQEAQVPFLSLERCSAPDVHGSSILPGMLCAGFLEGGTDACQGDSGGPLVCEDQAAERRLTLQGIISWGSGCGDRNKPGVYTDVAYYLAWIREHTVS
The format is functional.

The target of assay [1] is T3, Mannose-6-phosphate isomerase (Homo sapiens, UniProt P34949).
T3 sequence (P34949 whole entry): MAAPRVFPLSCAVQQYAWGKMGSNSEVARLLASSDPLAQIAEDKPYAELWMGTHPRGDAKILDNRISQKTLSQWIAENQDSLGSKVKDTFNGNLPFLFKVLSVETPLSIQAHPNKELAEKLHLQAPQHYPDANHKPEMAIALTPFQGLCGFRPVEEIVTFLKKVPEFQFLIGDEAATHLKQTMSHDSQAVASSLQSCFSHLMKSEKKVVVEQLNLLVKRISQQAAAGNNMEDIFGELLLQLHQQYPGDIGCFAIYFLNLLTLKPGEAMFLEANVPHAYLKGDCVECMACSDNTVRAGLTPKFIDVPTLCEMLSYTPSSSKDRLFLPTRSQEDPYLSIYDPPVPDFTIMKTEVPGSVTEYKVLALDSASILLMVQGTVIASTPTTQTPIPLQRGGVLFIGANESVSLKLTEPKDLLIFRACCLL
The assay is described as follows: phosphomannose isomerase inhibition – biochemical, fluorescence intensity, confirmation (AID 1535).

The target in a further assay is T4, Aminopeptidase N (Plasmodium falciparum FcB1/Columbia, UniProt O96935).
T4 sequence (O96935 whole entry): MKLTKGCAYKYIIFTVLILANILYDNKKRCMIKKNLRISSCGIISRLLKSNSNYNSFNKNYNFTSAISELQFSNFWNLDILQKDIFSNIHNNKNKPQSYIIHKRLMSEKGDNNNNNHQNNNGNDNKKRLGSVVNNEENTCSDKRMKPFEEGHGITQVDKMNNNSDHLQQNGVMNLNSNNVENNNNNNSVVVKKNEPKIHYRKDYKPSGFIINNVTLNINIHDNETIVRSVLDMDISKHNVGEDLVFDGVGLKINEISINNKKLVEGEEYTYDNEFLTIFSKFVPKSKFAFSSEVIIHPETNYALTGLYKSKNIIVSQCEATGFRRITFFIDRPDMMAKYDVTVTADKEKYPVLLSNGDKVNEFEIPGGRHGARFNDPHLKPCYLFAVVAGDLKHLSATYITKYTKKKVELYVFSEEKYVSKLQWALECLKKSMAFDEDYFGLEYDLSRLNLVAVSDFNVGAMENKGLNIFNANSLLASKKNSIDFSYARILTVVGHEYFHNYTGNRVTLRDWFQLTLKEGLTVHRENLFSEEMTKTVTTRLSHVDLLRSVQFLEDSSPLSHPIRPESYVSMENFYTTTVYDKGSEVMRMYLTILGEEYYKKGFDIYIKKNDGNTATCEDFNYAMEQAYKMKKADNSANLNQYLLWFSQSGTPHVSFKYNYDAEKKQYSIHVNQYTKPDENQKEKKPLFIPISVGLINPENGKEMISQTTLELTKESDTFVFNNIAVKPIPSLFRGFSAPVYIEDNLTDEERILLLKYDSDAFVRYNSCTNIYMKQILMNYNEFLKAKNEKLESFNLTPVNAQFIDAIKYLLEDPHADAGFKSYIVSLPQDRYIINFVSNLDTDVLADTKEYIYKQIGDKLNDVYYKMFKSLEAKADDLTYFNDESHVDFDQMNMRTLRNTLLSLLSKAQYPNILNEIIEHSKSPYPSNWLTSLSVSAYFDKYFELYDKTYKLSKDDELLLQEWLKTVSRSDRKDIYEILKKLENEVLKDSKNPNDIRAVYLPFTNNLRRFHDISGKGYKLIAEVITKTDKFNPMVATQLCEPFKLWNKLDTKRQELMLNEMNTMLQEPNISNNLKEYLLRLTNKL
Put plainly: malaria alanyl aminopeptidase activity blockers – biochemical, fluorogenic H-Leu-NHMec substrate, 1536-well (AID 1445). Further details: species or system Plasmodium falciparum 3D7, 3D7.

In the next assay the target is Large T antigen (Simian virus 40, UniProt P03070). Format: functional, Betapolyomavirus macacae.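 Note: Confirmatory-stage PubChem screen for compounds that inhibit SV40 T antigen.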
The target in a further assay is T5, Cytochrome P450 1A2 (Homo sapiens, UniProt P05177).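 Note: PubChem cytochrome P450 panel assay, CYP1A2 panel member.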
T5 sequence (P05177 whole entry): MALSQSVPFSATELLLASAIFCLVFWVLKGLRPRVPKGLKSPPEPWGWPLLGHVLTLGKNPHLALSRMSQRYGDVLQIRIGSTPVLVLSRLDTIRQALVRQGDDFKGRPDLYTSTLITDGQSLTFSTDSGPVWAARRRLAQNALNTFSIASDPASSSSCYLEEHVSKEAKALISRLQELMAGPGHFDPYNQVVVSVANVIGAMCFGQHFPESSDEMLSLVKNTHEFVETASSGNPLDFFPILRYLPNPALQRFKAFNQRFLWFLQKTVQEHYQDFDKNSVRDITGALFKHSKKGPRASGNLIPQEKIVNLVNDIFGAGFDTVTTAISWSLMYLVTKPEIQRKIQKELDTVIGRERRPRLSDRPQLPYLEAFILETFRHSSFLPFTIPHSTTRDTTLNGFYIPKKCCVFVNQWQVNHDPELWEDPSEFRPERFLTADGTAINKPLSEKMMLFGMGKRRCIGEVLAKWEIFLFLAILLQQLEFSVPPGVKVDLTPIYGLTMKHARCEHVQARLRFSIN

Another assay concerns the target Cytochrome P450 3A4 (Homo sapiens, UniProt P08684).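 Note: CYP3A4 tested as one member of a cytochrome P450 panel screen.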
Assay [2] in a line: viability of uninfected HEp-2 cells – cell-based, HTS, cytotoxicity control for RSV inhibitor project, dose response (AID 2410). Particulars: human respiratory syncytial virus. Format: functional.
The target in assay [3] is G-protein coupled receptor 55 (Homo sapiens, UniProt Q9Y2T6). Put plainly: selective activators of receptor GPR55 – imaging, U2OS cells, beta-arrestin-GFP redistribution, primary screen (AID 1961). Format: functional.
G-protein coupled receptor 55, sequence (Q9Y2T6 whole entry): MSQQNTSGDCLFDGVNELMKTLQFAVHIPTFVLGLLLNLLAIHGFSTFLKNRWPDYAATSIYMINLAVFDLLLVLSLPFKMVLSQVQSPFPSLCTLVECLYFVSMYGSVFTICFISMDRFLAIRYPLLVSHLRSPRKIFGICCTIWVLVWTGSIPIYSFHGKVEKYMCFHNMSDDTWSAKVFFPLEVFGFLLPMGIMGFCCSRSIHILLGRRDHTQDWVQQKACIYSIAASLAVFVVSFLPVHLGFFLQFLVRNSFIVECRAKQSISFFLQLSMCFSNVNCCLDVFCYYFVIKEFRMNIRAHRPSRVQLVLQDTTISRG
In assay [4] the target is Alkaline phosphatase, placental type (Homo sapiens, UniProt P05187). The assay is described as follows: human placental alkaline phosphatase inhibition – biochemical, luminescence, confirmation (AID 1512). The format is functional.
Alkaline phosphatase, placental type, sequence (P05187 whole entry): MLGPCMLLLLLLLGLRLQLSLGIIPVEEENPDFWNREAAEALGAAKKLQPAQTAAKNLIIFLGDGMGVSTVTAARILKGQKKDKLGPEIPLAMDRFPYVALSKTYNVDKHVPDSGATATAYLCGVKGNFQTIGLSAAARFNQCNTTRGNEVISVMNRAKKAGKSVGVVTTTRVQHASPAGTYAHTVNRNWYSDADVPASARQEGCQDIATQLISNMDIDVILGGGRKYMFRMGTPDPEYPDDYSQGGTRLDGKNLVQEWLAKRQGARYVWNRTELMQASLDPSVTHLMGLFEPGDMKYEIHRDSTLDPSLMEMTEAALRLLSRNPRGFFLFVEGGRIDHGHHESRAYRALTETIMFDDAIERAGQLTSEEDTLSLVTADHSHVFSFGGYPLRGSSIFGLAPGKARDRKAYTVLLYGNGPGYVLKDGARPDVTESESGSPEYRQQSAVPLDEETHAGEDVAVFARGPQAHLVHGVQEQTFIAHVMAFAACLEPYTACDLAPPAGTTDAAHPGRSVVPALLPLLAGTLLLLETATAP
For assay [5], the target named is T6, Alkaline phosphatase, tissue-nonspecific isozyme (Homo sapiens, UniProt P05186).
T6 sequence (P05186 whole entry): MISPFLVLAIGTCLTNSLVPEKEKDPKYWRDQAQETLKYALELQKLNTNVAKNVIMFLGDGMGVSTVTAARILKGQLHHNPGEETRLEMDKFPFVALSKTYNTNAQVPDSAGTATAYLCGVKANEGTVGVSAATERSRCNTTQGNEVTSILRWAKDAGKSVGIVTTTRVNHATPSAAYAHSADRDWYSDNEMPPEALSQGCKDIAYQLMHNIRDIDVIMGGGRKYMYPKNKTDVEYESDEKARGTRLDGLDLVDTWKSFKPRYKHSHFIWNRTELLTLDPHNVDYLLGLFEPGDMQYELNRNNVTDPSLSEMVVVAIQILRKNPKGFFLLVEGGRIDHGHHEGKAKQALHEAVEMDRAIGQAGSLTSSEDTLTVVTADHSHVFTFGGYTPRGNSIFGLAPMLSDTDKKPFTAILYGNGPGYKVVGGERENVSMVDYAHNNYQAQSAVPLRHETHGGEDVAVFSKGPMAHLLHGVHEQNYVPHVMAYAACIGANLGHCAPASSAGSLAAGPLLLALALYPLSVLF
Put plainly: potency against alkaline phosphatase TNAP – biochemical, luminescent, dose response, SAR follow-up (AID 1056).

The target of assay [6] is Glyceraldehyde-3-phosphate dehydrogenase (Homo sapiens, UniProt P04406).
Glyceraldehyde-3-phosphate dehydrogenase, sequence (P04406 whole entry): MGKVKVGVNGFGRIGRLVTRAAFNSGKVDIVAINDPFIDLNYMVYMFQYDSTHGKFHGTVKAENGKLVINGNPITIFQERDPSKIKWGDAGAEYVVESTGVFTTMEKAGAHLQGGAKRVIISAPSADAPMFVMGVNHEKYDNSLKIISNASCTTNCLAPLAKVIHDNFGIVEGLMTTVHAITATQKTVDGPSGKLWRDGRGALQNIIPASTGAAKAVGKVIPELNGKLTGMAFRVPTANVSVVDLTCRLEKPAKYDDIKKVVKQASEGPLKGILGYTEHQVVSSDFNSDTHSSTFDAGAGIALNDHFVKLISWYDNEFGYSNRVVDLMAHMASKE
In assay [7] the target is Voltage-dependent T-type calcium channel subunit alpha-1H (Homo sapiens, UniProt O95180). Format: functional.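 Note: channel activity triggered by adding a high calcium stimulation buffer.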
Voltage-dependent T-type calcium channel subunit alpha-1H, sequence (O95180 whole entry): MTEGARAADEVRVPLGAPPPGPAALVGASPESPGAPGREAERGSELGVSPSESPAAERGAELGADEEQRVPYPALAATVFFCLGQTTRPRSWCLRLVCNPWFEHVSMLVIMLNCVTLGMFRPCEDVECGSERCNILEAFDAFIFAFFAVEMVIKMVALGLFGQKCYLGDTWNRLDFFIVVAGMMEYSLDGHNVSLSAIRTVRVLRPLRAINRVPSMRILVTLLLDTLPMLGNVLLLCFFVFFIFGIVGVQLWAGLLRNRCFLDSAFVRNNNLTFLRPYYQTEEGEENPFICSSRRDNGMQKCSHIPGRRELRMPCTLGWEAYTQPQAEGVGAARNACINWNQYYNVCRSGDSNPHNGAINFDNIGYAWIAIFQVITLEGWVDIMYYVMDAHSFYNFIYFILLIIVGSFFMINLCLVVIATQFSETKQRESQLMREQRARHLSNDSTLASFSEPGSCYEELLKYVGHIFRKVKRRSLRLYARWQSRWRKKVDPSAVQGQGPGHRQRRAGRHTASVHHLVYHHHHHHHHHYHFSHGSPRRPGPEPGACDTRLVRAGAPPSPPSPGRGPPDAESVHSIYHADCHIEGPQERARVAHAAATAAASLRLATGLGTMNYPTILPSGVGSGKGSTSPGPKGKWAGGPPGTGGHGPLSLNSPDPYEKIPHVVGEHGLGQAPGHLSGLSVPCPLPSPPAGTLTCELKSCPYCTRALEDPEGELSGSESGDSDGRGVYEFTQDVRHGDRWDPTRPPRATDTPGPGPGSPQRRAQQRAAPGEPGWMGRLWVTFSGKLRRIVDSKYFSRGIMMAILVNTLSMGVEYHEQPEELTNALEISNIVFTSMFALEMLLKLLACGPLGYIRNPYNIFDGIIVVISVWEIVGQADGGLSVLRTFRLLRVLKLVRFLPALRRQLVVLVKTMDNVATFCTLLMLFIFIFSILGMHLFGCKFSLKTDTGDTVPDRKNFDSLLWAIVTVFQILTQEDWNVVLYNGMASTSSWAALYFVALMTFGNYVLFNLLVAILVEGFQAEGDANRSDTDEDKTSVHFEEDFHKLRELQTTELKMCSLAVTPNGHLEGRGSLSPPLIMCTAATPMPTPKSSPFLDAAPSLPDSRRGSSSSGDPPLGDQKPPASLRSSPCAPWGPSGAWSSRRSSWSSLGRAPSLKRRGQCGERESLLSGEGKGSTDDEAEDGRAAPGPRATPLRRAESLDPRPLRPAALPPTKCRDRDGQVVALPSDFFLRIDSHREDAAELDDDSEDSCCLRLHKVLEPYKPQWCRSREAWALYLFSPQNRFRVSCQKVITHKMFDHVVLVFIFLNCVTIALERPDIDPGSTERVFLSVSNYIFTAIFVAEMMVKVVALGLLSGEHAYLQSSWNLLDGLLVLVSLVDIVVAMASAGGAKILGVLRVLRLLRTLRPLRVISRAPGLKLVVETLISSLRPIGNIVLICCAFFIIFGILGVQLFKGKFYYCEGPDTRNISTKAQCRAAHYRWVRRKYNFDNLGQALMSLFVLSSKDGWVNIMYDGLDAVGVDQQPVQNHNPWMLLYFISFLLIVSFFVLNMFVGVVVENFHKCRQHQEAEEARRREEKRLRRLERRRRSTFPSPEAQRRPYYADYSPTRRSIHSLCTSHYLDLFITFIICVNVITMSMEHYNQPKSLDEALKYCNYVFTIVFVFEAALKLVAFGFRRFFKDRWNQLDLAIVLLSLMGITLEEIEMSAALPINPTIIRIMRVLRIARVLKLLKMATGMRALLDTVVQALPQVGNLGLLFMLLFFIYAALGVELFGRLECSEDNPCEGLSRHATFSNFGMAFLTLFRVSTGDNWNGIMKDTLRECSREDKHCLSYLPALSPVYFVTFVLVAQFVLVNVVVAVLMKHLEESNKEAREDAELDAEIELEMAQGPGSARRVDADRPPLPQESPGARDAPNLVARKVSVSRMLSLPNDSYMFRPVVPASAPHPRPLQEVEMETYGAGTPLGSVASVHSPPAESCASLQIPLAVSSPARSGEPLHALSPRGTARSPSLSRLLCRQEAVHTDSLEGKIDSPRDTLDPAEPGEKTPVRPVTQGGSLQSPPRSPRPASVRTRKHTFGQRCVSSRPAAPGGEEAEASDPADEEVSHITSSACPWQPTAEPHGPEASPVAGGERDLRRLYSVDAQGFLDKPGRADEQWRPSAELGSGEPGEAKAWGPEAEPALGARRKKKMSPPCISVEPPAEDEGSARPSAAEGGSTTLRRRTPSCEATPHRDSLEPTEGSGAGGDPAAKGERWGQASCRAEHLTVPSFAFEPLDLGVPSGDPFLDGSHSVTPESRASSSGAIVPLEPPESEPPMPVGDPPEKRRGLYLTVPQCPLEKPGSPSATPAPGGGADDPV
The next assay relates to HeLa. The assay is described as follows: ATP-based viability loss in HeLa cells – cell-based, CellTiter-Glo luminescence, cherry-pick samples, cytotoxicity control for MITF activator project, dose response (AID 540259). The format is functional. The note with it: Homo sapiens. Background: ATP-based viability assays read luminescence as a measure of living cells.
Another assay has as its target Cytochrome P450 2D6 (Homo sapiens, UniProt P10635).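 Note: CYP2D6 member of a cytochrome P450 panel assay.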
Another assay relates to H9c2. The assay is described as follows: cells. The format is functional, cell-based. The note with it: Rattus norvegicus, H9c2, Myocardium.

Cytochrome P450 2D6, sequence (P10635 whole entry): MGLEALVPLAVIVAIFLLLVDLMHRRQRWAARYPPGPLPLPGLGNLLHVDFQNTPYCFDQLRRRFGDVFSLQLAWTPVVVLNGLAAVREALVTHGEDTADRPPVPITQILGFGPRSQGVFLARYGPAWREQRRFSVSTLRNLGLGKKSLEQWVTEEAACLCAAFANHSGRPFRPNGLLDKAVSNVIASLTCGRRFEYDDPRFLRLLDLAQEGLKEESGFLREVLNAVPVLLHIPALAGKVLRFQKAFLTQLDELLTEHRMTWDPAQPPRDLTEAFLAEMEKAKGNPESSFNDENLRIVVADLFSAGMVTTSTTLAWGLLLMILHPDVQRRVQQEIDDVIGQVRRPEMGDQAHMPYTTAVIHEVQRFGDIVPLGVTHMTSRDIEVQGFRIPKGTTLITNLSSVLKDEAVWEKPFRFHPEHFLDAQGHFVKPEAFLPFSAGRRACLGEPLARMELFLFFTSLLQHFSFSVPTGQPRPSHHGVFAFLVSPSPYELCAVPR
Cytochrome P450 3A4, sequence (P08684 whole entry): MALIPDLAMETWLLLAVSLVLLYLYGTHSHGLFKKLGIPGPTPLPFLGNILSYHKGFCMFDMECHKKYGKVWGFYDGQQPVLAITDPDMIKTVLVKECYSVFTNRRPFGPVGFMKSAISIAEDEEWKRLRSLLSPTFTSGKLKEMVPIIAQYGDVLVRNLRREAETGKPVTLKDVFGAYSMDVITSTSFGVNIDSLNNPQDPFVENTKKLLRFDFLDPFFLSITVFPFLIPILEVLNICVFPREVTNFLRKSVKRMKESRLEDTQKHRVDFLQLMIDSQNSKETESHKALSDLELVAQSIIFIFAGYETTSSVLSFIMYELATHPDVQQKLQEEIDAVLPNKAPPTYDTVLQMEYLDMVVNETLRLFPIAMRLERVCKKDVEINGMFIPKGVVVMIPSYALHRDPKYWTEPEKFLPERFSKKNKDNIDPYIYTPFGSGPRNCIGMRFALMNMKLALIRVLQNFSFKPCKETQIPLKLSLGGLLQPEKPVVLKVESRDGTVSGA

As for `COC(=O)c1ccc(Cl)cc1NC(=O)c1ccc(Cl)cc1`, the IC50 at Hexokinase is > 25 µM (inactive).

Turning to `O=C(Cn1nnc(-c2ccccc2)n1)OCc1csc(-c2ccccc2)n1`, the IC50 at Coagulation factor XII is > 50 µM (inactive). On to `Clc1ccnc(/N=c2\ssnc2Cl)c1`, for which the IC50 in assay [1] was > 100 µM (inactive). Regarding `CCOC(=O)c1c(N2C(=O)Nc3cc(Cl)c(Cl)cc3N2O)sc2c1CCCCC2`, the values for the IC50 on Aminopeptidase N and at Large T antigen were 81.7 µM (active) and > 100 µM (active), respectively. The AC50 was 39.8 µM (inconclusive) on Cytochrome P450 1A2 and 10 µM (inconclusive) at Cytochrome P450 3A4.

Take `Cc1cc(NC(=O)CSc2nc3ccsc3c(=O)n2NC(=O)c2ccccc2)no1`: the IC50 on Aminopeptidase N is 23.7 µM (active). Take `COc1cc2c(cc1NC(=O)CSc1ccc(C)cc1)oc1ccccc12`: the half-maximal cytotoxic concentration (CC50) in assay [2] was 28.4 µM (active). The EC50 in assay [3] is 1.15 µM (active).

For the compound `C/C=C/c1ccc(OCCOc2cc(C=O)ccc2OC)c(OC)c1`, the half-maximal inhibitory concentration (IC50) at Aminopeptidase N is 88.9 µM (active). As for `Cc1ccccc1-n1nc(CSc2nc3ccccc3[nH]2)c(-c2ccccc2)c1N`, the IC50 in assay [4] was > 100 µM (inactive).

For the compound `C=CCn1c(SCC(=O)c2ccc(O)c(O)c2)nnc1-c1ccccc1`, the IC50 in assay [4] is 2.53 µM (active); in assay [5] it was 19.5 µM (active). With `COc1ccc(C(=O)Nc2ccccc2C(=O)O)cc1`, the IC50 on Hexokinase is > 25 µM (inactive). `COc1ccc(-c2cc(C(=O)O)[nH]n2)c(OC)c1`: the values for the IC50 in assay [6] and in [5] were > 100 µM (not active) and 38.2 µM (active), respectively. Regarding `Cc1csc(NC(=O)Cc2c[nH]c3ccccc23)n1`, the EC50 in assay [7] is 9.34 µM (active). Besides, on Coagulation factor XII, the IC50 is > 50 µM (inactive). The AC50 in the assay on HeLa was 320 µM (active); on Cytochrome P450 2D6, 22.4 µM (inconclusive). `COc1ccc(C2=NN(c3nc(-c4ccc(CNC(C)=O)cc4)cs3)C(c3ccco3)C2)cc1` (centres undefined): the EC50 in assay [3] is 1.04 µM (active). Regarding `O=C(O)c1cc(-c2cc(F)c(Cl)cc2Cl)n[nH]1`, the values for the IC50 in assay [6], in assay [4] and in [5] were > 100 µM (not active), > 100 µM (inactive) and 1.09 µM (active), respectively. For the compound `COCc1nc(-c2cc(OC)c(OC)c(OC)c2)no1`, the EC50 in assay [3] is > 32 µM (inactive). For the compound `COc1cccc(C(=O)Nc2cc(Cl)ccc2C(=O)O)c1`, on Hexokinase, the IC50 is 17.9 µM (active).

With `C#CCOc1nc(Nc2cccc([N+](=O)[O-])c2)nc(OCC#C)n1`, the IC50 at Coagulation factor XII was > 50 µM (inactive); in the assay on H9c2, > 79 µM (inactive).
